Measured values from patent publication US5578570A, “Method of treating septic shock using thymosin β4” (The George Washington University Medical Center, priority 1994, dated 1996).

System: Rats with Septic Shock
Test: Survival of Sprague-Dawley rats in septic shock model (peritonitis)
Format: in vivo
Details: Table XIV, septic shock + antibiotic (gentamicin sulfate, 1 mg/rat) alone, 10 rats at 0 hr
Excerpt: Using a septic shock model in rats (Sprague-Dawley, male, 200-225 g each), the effect of thymosin β4 alone and together with antibiotics was studied. Peritonitis was induced in rats in the following way. A 1-cm incision was made into the peritoneal which exposed the cecum. A tight ligature was placed around the cecum with 4-0 suture distal to the insertion of the small bowel, forming an area of devitalized tissue while maintaining bowel continuity. A puncture wound was made with 16-gauge needle into the anti-mesenteric surface of the cecum and a small amount of fecal contents was expressed through the wound. The cecum was replaced into the peritoneal cavity, and the anterior peritoneal wall and skin were closed with surgical staples. Each animal was given a bolus of normal saline (15 ml/kg) for hydration and allowed to recover overnight.

Substance: gentamicin sulfate [antibiotic, reference compound]
- Survival of rats (number alive) (24 hr): 1
- Survival of rats (number alive) (48 hr): 1
- Survival of rats (number alive) (72 hr): 0
